This note sets out measurements from ChEMBL document CHEMBL5370660, “Design of a Supersoft Topical JAK Inhibitor, Which Is Effective in Human Skin but Rapidly Deactivated in Blood” (J Med Chem, 2023).

Data set [1] addresses Tyrosine-protein kinase JAK1 (Homo sapiens, UniProt P23458). The data set can be described thus: Inhibition of GST-fused JAK1 (866 to 1154 residues)(unknown origin) using FITC-Ahr-KKSRGDYMTMQIG-NH2 peptide as substrate incubated for 30 mins in presence of ATP by caliper microfluidic mobility shift assay.
Data set [2] addresses Tyrosine-protein kinase JAK2 (Homo sapiens, UniProt O60674). The data set can be described thus: Inhibition of GST-fused JAK2 (808 to 1132 residues)(unknown origin) using Carboxyfluorescein-Ahx-GGEEEEYFELVKKKK peptide as substrate incubated for 30 mins in presence of ATP by caliper microfluidic mobility shift assay.
In data set [3] the target is T1, Tyrosine-protein kinase JAK3 (Homo sapiens, UniProt P52333).
T1 sequence (P52333 whole entry): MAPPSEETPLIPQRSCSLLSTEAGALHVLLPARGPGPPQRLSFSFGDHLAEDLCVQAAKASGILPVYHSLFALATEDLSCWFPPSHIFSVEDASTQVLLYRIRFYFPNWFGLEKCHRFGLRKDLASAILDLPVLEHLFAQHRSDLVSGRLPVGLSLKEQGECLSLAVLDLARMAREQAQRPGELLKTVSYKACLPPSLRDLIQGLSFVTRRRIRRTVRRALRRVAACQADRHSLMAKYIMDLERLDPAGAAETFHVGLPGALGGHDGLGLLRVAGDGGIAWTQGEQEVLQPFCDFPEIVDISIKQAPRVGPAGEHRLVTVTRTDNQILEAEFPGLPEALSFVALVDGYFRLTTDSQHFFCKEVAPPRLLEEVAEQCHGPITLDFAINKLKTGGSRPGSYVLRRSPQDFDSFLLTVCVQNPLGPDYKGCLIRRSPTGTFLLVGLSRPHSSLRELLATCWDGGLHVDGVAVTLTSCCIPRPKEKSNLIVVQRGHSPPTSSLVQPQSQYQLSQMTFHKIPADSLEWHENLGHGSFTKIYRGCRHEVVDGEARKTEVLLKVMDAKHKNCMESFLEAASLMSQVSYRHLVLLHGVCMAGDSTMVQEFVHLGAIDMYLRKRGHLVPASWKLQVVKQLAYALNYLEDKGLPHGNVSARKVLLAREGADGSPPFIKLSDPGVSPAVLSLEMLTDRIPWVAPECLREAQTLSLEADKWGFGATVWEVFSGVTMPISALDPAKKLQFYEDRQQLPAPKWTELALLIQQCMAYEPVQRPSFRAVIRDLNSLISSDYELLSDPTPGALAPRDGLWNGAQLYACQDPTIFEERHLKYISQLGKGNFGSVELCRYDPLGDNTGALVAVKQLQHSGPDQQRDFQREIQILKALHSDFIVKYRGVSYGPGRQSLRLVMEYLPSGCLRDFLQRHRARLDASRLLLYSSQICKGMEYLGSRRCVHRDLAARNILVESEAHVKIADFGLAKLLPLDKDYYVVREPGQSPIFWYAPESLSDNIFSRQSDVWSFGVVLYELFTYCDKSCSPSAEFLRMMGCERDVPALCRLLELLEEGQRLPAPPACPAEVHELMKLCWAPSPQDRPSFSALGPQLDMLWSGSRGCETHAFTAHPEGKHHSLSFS
As to the kind of experiment: Inhibition of GST-fused JAK3 (811 to 1124 residues)(unknown origin) using Carboxyfluorescein-Ahx-GGEEEEYFELVKKKK peptide as substrate incubated for 30 mins in presence of ATP by caliper microfluidic mobility shift assay.

Data set [4] deals with Non-receptor tyrosine-protein kinase TYK2 (Homo sapiens, UniProt P29597). As to the kind of experiment: Inhibition of GST-fused TYK2 (888 to 1187 residues)(unknown origin) using FITC-Ahr-KKSRGDYMTMQIG-NH2 peptide as substrate incubated for 30 mins in presence of ATP by caliper microfluidic mobility shift assay.
In data set [5] the target is T2, JAK3/JAK1 (Homo sapiens, UniProt P23458+P52333). As to the kind of experiment: Inhibition of JAK1/3-mediated STAT5 phosphorylation in human M07E cells preincubated for 30 mins followed by IL-15 stimulation measured after 15 mins by flow cytometry. Type of data set: cell-based. A general note: Flow cytometry measures light scatter and fluorescence of single cells or particles in a stream.

The target of data set [6] is JAK2/JAK1 (Homo sapiens, UniProt O60674+P23458). As to the kind of experiment: Inhibition of JAK1/2-mediated STAT1 phosphorylation in human M07E cells preincubated for 30 mins followed by IFN-alpha stimulation measured after 15 mins by flow cytometry. Type of data set: cell-based.
Data set [7] deals with T2, JAK3/JAK1. As to the kind of experiment: Inhibition of JAK1/3-mediated STAT5 phosphorylation in human whole blood incubated for 30 mins followed by IL-2 addition measured after 15 mins by flow cytometry. Type of data set: tissue-based.
A short description of data set [8]: Stability in human whole blood assessed as half life at 1 uM incubated upto 8 hrs by LC-MS/MS analysis. Type of data set: ADME, tissue-based.
A short description of data set [9]: Metabolic stability in human skin S9 fraction measured upto 120 mins by LC-MS analysis. The format is ADME, subcellular.
Data set [10] can be described thus: Permeability of compound. Type of data set: ADME. Conditions: not told; read-out: permeability.
Data set [11] in a line: Lipophilicity, LogD of compound. Particulars: octanol/water. Type of data set: physicochemical.
Data set [12] in a line: Thermodynamic solubility of the compound at pH 6.8 using crystalline form of sample. Type of data set: physicochemical. Conditions: read-out: Therm_solubility.
Data set [13] in a line: Saturation solubility of compound in PEG400/transcutol/benzyl alcohol/water mixture using crystalline form of sample. Type of data set: physicochemical.
Data set [14] can be described thus: Stability of compound under light stress assessed as compound decomposition under sunlight with intensity of 4000 KJ/m2, irradiation of 250 W/m2, wavelength of >290 nm, temperature of 37 degreeC for 4 hrs using crystalline form of sample. The format is ADME. Conditions: read-out: Drug degradation.
A short description of data set [15]: Stability of compound under temperature stress assessed as compound degradation at 50 degreeC measured after 7 days using crystalline form of sample. Type of data set: physicochemical. Particulars: time 7 day; read-out: Drug degradation.
Data set [16] in a line: Solubility of the compound at pH 6.8 using amorphous form of sample. The format is physicochemical. Particulars: buffer.
Data set [17] is described as follows: Saturation solubility of compound in PEG400/transcutol/benzyl alcohol/water mixture using amorphous form of sample. The format is physicochemical.
Data set [18] can be described thus: Stability of compound under temperature stress assessed as compound degradation at 50 degreeC measured after 7 days using amorphous form of sample. The format is physicochemical. Conditions: time 7 day; read-out: Drug degradation.
A short description of data set [19]: Stability of compound in fresh human skin explant using Franz diffusion cell model assessed as compound concentration in dermis at 3 % administered topically preincubated overnight followed by fresh media replacement in receiver fluid without compound and subsequently stimulated with IL-4/IL-13 measured after 40 hrs by LC-MS/MS analysis. The format is ADME, tissue-based, Skin of body. Conditions: topical or ocular, read-out: Ct.

Data set [20] is described as follows: Drug penetration in fresh human skin explant using Franz diffusion cell model assessed as concentration of 2-(6-((5-carbamoyl-4-((2-methoxyphenyl)amino)pyridin-2-yl)amino)pyridin-3-yl)acetic acid metabolite in receiver fluid at 3 % administered topically preincubated overnight followed by fresh media replacement in receiver fluid without compound and subsequently stimulated with IL-4/IL-13 measured after 24 hrs by LC-MS/MS analysis. Type of data set: ADME, tissue-based, Skin of body. Conditions: topical_or_ocular.

Broadly, the IC50 is the concentration that inhibits the measured activity by half. What is called half-life is the time needed for the level to fall by half in the phase considered. By logD is commonly meant lipophilicity at a set pH, counting ionised and neutral species. As usually defined, the solubility is the concentration that dissolves in the medium under given conditions. A low value points to a poorly soluble substance.

Converted amounts (≈) assume the structure as drawn.

Sequence of JAK2/JAK1 (P23458 whole entry): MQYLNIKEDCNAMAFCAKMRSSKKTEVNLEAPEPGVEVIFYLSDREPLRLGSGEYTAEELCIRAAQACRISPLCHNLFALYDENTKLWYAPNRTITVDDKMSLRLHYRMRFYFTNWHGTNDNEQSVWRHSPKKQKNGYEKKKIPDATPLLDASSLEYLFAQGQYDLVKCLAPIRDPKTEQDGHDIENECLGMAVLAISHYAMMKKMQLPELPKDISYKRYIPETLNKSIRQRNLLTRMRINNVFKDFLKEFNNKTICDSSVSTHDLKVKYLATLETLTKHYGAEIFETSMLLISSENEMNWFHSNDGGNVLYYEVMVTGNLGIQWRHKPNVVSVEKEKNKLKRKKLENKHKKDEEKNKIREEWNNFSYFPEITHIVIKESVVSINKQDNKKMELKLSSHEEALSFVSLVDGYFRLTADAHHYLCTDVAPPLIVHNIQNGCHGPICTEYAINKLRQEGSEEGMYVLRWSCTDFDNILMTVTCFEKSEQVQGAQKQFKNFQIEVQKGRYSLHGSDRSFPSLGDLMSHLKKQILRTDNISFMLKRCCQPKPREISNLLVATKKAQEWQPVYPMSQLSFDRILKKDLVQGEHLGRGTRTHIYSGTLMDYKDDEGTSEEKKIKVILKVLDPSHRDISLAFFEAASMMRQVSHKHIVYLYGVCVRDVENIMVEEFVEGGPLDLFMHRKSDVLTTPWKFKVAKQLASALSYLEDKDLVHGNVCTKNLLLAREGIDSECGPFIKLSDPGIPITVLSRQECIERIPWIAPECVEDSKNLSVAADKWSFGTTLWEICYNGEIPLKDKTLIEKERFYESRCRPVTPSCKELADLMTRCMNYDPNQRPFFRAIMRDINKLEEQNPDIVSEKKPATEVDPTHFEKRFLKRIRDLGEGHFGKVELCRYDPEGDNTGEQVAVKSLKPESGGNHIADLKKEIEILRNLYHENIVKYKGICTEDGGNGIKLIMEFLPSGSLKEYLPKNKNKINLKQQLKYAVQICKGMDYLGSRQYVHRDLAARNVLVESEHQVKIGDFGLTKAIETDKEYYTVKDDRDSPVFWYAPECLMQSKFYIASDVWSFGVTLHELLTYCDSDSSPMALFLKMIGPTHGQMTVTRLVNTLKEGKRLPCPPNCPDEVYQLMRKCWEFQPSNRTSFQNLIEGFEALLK
Sequence of JAK2/JAK1 (O60674 whole entry): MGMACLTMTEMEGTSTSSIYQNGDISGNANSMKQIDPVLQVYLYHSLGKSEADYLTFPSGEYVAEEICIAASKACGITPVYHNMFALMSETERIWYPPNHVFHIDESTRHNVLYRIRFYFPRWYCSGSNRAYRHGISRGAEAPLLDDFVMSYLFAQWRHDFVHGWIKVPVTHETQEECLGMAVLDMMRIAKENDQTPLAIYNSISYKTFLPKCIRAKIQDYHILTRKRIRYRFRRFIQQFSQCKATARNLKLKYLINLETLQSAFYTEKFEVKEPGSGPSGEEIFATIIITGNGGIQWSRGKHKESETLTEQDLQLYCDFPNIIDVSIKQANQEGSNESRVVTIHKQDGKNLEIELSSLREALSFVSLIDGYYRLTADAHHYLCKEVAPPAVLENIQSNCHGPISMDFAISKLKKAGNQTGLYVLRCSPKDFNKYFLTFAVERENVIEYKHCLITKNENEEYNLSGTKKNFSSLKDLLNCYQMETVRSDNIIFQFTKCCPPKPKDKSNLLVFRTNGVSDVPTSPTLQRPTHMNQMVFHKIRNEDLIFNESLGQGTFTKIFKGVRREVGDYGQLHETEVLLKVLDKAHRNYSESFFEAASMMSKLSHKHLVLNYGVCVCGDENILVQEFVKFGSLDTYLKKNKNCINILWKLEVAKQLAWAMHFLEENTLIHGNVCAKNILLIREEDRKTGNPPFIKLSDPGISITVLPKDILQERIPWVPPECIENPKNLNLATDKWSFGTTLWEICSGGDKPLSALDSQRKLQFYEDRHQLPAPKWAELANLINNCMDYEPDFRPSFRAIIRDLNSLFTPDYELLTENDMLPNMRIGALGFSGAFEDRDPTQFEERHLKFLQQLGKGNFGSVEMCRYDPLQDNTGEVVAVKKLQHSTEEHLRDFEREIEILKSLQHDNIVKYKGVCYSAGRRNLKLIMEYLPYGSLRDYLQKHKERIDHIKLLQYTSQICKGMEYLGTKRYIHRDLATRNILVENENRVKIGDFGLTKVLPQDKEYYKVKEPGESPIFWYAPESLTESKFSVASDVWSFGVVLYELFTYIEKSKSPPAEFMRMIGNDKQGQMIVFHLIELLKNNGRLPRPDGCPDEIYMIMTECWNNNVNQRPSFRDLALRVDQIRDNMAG
Sequence of Tyrosine-protein kinase JAK1 (P23458 whole entry, the tested form may be a part): as the sequence (P23458 whole entry) above
T2 sequence (P23458 whole entry, one chain of several): as the sequence (P23458 whole entry) above
Sequence of Tyrosine-protein kinase JAK2 (O60674 whole entry, the tested form may be a part): as the sequence (O60674 whole entry) above
Sequence of Non-receptor tyrosine-protein kinase TYK2 (P29597 whole entry, the tested form may be a part): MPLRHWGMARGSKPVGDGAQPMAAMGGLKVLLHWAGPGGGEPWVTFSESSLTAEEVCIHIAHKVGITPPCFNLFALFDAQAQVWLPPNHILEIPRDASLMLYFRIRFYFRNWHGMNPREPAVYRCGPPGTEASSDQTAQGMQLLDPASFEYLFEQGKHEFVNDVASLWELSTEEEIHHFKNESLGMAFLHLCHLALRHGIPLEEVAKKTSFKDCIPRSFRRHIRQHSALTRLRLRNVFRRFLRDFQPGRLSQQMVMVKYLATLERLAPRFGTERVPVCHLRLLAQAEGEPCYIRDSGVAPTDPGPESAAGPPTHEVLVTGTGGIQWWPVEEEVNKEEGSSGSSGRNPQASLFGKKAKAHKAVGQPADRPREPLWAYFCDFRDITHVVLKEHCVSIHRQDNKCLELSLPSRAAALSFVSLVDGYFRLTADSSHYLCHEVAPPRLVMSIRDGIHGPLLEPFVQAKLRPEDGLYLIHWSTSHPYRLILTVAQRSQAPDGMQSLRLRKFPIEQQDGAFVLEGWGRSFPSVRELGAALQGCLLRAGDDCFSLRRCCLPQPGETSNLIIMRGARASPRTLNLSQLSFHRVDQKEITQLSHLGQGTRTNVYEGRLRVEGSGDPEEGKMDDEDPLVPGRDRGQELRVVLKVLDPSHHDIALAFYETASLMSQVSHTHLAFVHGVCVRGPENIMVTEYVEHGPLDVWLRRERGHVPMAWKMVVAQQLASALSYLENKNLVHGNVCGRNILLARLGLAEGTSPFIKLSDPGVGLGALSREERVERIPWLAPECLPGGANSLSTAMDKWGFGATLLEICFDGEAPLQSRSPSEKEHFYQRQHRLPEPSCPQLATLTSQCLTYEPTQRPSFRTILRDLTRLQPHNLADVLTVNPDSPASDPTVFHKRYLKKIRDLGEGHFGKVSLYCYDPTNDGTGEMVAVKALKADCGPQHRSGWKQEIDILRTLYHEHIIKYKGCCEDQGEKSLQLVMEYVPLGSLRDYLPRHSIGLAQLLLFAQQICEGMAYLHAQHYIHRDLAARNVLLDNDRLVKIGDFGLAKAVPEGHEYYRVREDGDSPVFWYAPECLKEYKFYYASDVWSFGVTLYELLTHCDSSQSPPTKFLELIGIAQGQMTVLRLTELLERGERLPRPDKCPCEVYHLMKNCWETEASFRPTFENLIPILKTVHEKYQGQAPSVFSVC

For the molecule `CCOC(=O)Cc1ccc(Nc2cc(Nc3ccccc3OC)c(C(N)=O)cn2)nc1`, the half-inhibitory concentration (IC50) in data set [1] came to 19 nM; in data set [2], 26 nM; in data set [3], 56 nM; in data set [4], 21 nM; in data set [5], 80 nM; in [6], 58 nM. In data set [7], half-maximal inhibition (IC50) required 10200 nM. Also, in data set [8], the half-life at 1 µM was found to be 5 min. In data set [9], this molecule had a half-life of 12 min. The Papp in [10] is 28 ×10⁻⁶ cm/s. The same molecule came in with a log distribution coefficient (logD) in data set [11] of 2.9. In addition, the solubility thermodynamic was 1 µg/mL (≈ 2.37 µM) in [12] and not below 9000 µg/mL in data set [13]. For the same molecule, the degraded at 4 h in data set [14] was 0%. Further, the degraded at 168 h in data set [15] stood at 2%.

Take `CCOC(=O)Cc1ccc(Nc2cc(Nc3ccccc3Cl)c(C(N)=O)cn2)nc1`: the 50% inhibitory concentration (IC50) in data set [1] amounted to 20 nM; in data set [2] it was 17 nM; in data set [3], 18 nM; in data set [5] it was 24 nM; in data set [6], 60 nM; in [7], 12200 nM. The half-life at 1 µM in data set [8] was found to be 7 min. Also, in data set [9], the half-life is 14 min. The Papp in data set [10] was found to be 11 ×10⁻⁶ cm/s. Besides, the log distribution coefficient (logD) in data set [11] was 4.6. The amount in solution in data set [16] (solubility) came to 0.1 µg/mL (≈ 0.235 µM). The solubility thermodynamic in data set [17] is 8700 µg/mL (≈ 20400 µM). Moreover, in data set [18], the degraded at 168 h is 1%.

With `COc1ccccc1Nc1cc(Nc2ccc(CC(=O)O[C@H]3CCOC3)cn2)ncc1C(N)=O`, the concentration for half-maximal inhibition (IC50) stood at 5 nM in [1]; 5 nM in [2]; 5 nM in [3]; 2 nM in [4]; 89 nM in data set [5]; 44 nM in data set [6]. Also, the IC50 in data set [7] was 16000 nM. The half-life at 1 µM in data set [8] worked out at 5 min. In data set [9], this molecule had a half-life of 39 min. The Papp in data set [10] was 20 ×10⁻⁶ cm/s. Also, in data set [11], the log distribution coefficient (logD) was 3. Moreover, the results for the solubility thermodynamic in data set [12] and in data set [13] were 31 µg/mL (≈ 66.9 µM) and more than 18000 µg/mL, respectively. The degraded at 4 h in [14] worked out at 3.3%. In [15], the degraded at 168 h turned out to be 2.4%. In addition, the concentration at 40 h, 3 % in data set [19] was found to be 54 µM. In data set [20], the Drug uptake amounted to 0.124 µM.
